The values below come from US12168650B2, “Crystalline forms of 3-(5-(2-hydroxy-2-methylpropoxy)-6-methylpyrazin-2-yl)-1H-indole-7-carbonitrile” (NIDO BIOSCIENCES, INC., priority 2022, dated 2024).

Series [1] concerns LNCaP cells expressing ARR2PB-FireflyLuc and CMV-RenillaLuc. In words: LNCaP ARR2PB-FireflyLuc reporter assay. It counts as cell-based. Conditions: Homo sapiens, +/−0.5 nM DHT, 48 h at 37° C. How it is done:
LNCaP cells expressing ARR2PB-FireflyLuc and CMV-RenillaLuc were treated with indicated concentrations of the test compound, enzalutamide (negative control), or DHT (positive control)+/−0.5 nM DHT for 48 h at 37° C. […] signals were read with the ImageXpress Micro Confocal System. Remaining activity (antagonist mode) was calculated as % Remaining Activity=100×[(Readsample−LCave)/(HCave−LCave)] where HC is cells treated with 0.5 nM DHT only and LC is cells treated with 10 uM enzalutamide+0.5 nM DHT. Activation (agonist mode) was calculated as % Activation=100×[(ReadSample−LCave)/(HCave−LCave)] where HC is cells treated with 1 uM DHT and LC is cells treated with DMSO. Dose response curves and IC50 values were calculated using non-linear regression analysis in XLfit.

Series [2] can be described thus: Solution state chemical stability. Format: physicochemical. As to conditions: for Purity: ~10 mg/ml. The procedure:
The solution state chemical stability was carried out in acetone, MEK, and 2-MeTHF solvent systems at 50° C. and 55° C. […] The purity of the compound degraded from 99.43% to 98.27% after 48 h holding at 55° C. in MEK solvent system.
2-MeTHF/n-hep was selected as the potential solvent system for the crystallization. The solution state chemical stability was carried out in 2-MeTHF solvent systems at higher temperature (60° C. and 70° C.).

Series [3] in a line: Competitive equilibration experiments of anhydrates. Conditions: at both 25° C. and 50° C.
Experimental: Relative stability of the anhydrate Forms A, C, H and J was investigated with competitive equilibration experiments.
Relative stability of the anhydrates Forms C, K and L was investigated with competitive equilibration experiments.
To determine relative stability of anhydrates, competitive equilibration experiments were conducted in different solvent systems.
About 2 mg of each anhydrate was added to 0.3-0.4 mL saturated solutions of selected solvents. Obtained suspensions were stirred at 25° C. for 3-10 days, respectively. Solid parts (wet cakes) were isolated by centrifugation filtration and investigated by XRPD.
Series [4] can be described thus: Interconversion of polymorphs (heating, dehydration, humidity, equilibration). Format: physicochemical. The source says: In total, 15 forms were identified to be polymorphs or pseudo-polymorphs of the free form, including seven anhydrates, Forms A, C, H, J, K. L and O; four hydrates, Forms B, F, M and N; and three solvates, Forms D, E and I. In addition, a metastable form, Form G, and an amorphous form were also obtained.
The interconversion relation of polymorphs identified is outlined in FIG. 5.

Several values for one entry are separate records, joined by “and”; a condition that tells them apart may be missing. Equal entries are not always repeated.

As to `Cc1nc(-c2c[nH]c3c(C#N)cccc23)cnc1OCC(C)(C)O` [3-(5-(2-hydroxy-2-methylpropoxy)-6-methylpyrazin-2-yl)-1H-indole-7-carbonitrile], the IC50 in series [1] came out at 50 nM. Moreover, the Purity in series [2] (2-MeTHF, 55° C., 0 h) was determined as 99.35% a %; in series [2] (2-MeTHF, 55° C., 6 h), 99.55% a %; in series [2] (2-MeTHF, 55° C., 24 h) it was 99.62% a %; in series [2] (2-MeTHF, 55° C., 48 h) it was 99.62% a %; in series [2] (2-MeTHF, 60° C., 0 h), 99.54% a %; in series [2] (2-MeTHF, 60° C., 24 h) it was 99.69% a %. The Purity in series [2] (2-MeTHF, 60° C., 48 h) was 99.56% a %; in series [2] (2-MeTHF, 70° C., 0 h), 99.53% a %; in series [2] (2-MeTHF, 70° C., 24 h), 99.70% a %; in series [2] (2-MeTHF, 70° C., 48 h), 99.44% a %; in series [2] (2-MeTHF/n-hep = 1 v/1 v, 70° C., 0 h), 98.45% a %; in series [2] (2-MeTHF/n-hep = 1 v/1 v, 70° C., 24 h) it was 98.44% a %. For the same compound, the Purity in series [2] (2-MeTHF/n-hep = 1 v/1 v, 70° C., 48 h) was 98.44% a %; in series [2] (Acetone, 50° C., 0 h), 99.54% a %; in series [2] (Acetone, 50° C., 6 h), 99.50% a %; in series [2] (Acetone, 50° C., 24 h) it was 99.51% a %; in series [2] (Acetone, 50° C., 48 h), 99.69% a %; in series [2] (MEK, 55° C., 0 h), 99.43 a % and 99.43% a %. The Purity was 99.23% a % in series [2] (MEK, 55° C., 6 h); 98.54% a % in series [2] (MEK, 55° C., 24 h); 98.27 a % and 98.27% a % in series [2] (MEK, 55° C., 48 h). Also, the “Solution state chemical stability” value is on record as “stable” in series [2] (after 48 h holding in 2-MeTHF at 60° C. and 70° C.); “stable” in series [2] (after 48 h holding in 2-MeTHF/n-hep=1v/1v at 70° C.); “stable” in series [2] (after 48 h holding in both acetone and 2-MeTHF systems (50° C. and 55° C.)).

As for `Cc1nc(-c2c[nH]c3c(C#N)cccc23)cnc1OCC(C)(C)O` [Form A, 3-(5-(2-hydroxy-2-methylpropoxy)-6-methylpyrazin-2-yl)-1H-indole-7-carbonitrile], in series [3], the “Relative thermodynamic stability of anhydrates” value is on record as “converts to Form C”.

As for `Cc1nc(-c2c[nH]c3c(C#N)cccc23)cnc1OCC(C)(C)O` [Form B, 3-(5-(2-hydroxy-2-methylpropoxy)-6-methylpyrazin-2-yl)-1H-indole-7-carbonitrile], in series [4] (after dehydration), the Form conversion entry is recorded as “converts to Form K”.

As for `Cc1nc(-c2c[nH]c3c(C#N)cccc23)cnc1OCC(C)(C)O` [Form D, 3-(5-(2-hydroxy-2-methylpropoxy)-6-methylpyrazin-2-yl)-1H-indole-7-carbonitrile], the Form conversion result in series [4] (after desolvation) was “converts to Form C”.

Consider `Cc1nc(-c2c[nH]c3c(C#N)cccc23)cnc1OCC(C)(C)O` [Form E, 3-(5-(2-hydroxy-2-methylpropoxy)-6-methylpyrazin-2-yl)-1H-indole-7-carbonitrile], for which the Form conversion entry in series [4] (after heating to 100° C. by TGA and cooled to room temperature) is “converts to physical mixture of Form F and Form G”.

`Cc1nc(-c2c[nH]c3c(C#N)cccc23)cnc1OCC(C)(C)O` [Form G, 3-(5-(2-hydroxy-2-methylpropoxy)-6-methylpyrazin-2-yl)-1H-indole-7-carbonitrile]: in series [4] (equilibration in DMSO/water system at 25° C. for 6 days), the Form conversion result is “converts to anhydrate Form H”.

As to `Cc1nc(-c2c[nH]c3c(C#N)cccc23)cnc1OCC(C)(C)O` [Form I, 3-(5-(2-hydroxy-2-methylpropoxy)-6-methylpyrazin-2-yl)-1H-indole-7-carbonitrile], the Form conversion entry in series [4] (after heating to 140° C. by TGA and cooled to room temperature) is “converted to physical mixture of Form C, Form N and an unknown peak”.

As to `Cc1nc(-c2c[nH]c3c(C#N)cccc23)cnc1OCC(C)(C)O` [Form K, 3-(5-(2-hydroxy-2-methylpropoxy)-6-methylpyrazin-2-yl)-1H-indole-7-carbonitrile], the Form conversion result in series [4] (after melting and re-crystallization (DSC, VT-XRPD)) was “converts to Form L”; in series [4] (exposure to 25° C. in 40-70% RH for 6 days), “reverts back to Form B”; in series [4] (exposure to 25° C./92% RH for 6 days) it was “converts to hydrate Form B”.

With `Cc1nc(-c2c[nH]c3c(C#N)cccc23)cnc1OCC(C)(C)O` [Form M, 3-(5-(2-hydroxy-2-methylpropoxy)-6-methylpyrazin-2-yl)-1H-indole-7-carbonitrile], the Form conversion entry was “converts to Form B” in series [4] (equilibration in MeOH at 25° C. for another 1 day) and “converted to Form B” in series [4] (wet cake from methanol, once exposed to the air).

For `Cc1nc(-c2c[nH]c3c(C#N)cccc23)cnc1OCC(C)(C)O` [amorphous form, 3-(5-(2-hydroxy-2-methylpropoxy)-6-methylpyrazin-2-yl)-1H-indole-7-carbonitrile], the Form conversion entry in series [4] (after exposure to high humidity) is “crystallized to Form N”.
